Source: PubChem BioAssay AID1845212 (Molecular Pharmacology Branch, DTP, NCI, 2023)
Values joined by “and” are separate entries in the source; they are usually repeats but may differ in a detail not shown here. Equal values may be shown once.

System: NCI-H719 tumor spheroids, viability
Assay: Anticancer human tumor NCI-H719 cell line growth inhibition;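 note: spheroids exposed to compounds for seven days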;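 for viability, T/C: percent viability relative to DMSO vehicle control as 100%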
Details: spheroids with HUVEC and MSC; for viability, T/C: stronger effect = lower value
In short: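 Complex tumor spheroids combined malignant cells with endothelial cells and mesenchymal stem cells. DNA-damaging drugs and DNA repair inhibitors were tested alone and in combination, at half-log dilutions down from clinical Cmax (top 10 microM if Cmax unknown), 0.25% DMSO final.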

[1] = curve of first compound, second compound 1 µM
[2] = curve of first compound, second compound 3.16 µM
[3] = curve of first compound, second compound 10 µM
[4] = curve of first compound, second compound 31.6 µM
[5] = curve of first compound, second compound 100 µM

Cn1ncnc1[C@H]1c2n[nH]c(=O)c3cc(F)cc(c23)N[C@@H]1c1ccc(F)cc1 + Cn1nnc2c(C(N)=O)ncn2c1=O
IC50 [1]: < 9.49 nM
IC50 [2]: < 9.49 nM
IC50 [3]: < 9.49 nM
IC50 [4]: < 9.49 nM
IC50 [5]: < 9.49 nM
viability, T/C (second compound 1 µM, first compound 0.00949 µM): 18.9%
viability, T/C (second compound 1 µM, first compound 0.03 µM): 7.46%
viability, T/C (second compound 1 µM, first compound 0.0949 µM): 7.66%
viability, T/C (second compound 1 µM, first compound 0.3 µM): 7.07%
viability, T/C (second compound 1 µM, first compound 0.949 µM): 6.65%
viability, T/C (second compound 1 µM, first compound 3 µM): 7.52%
viability, T/C (second compound 3.16 µM, first compound 0.00949 µM): 14.8%
viability, T/C (second compound 3.16 µM, first compound 0.03 µM): 7.76%
viability, T/C (second compound 3.16 µM, first compound 0.0949 µM): 7.04%
viability, T/C (second compound 3.16 µM, first compound 0.3 µM): 7.11%
viability, T/C (second compound 3.16 µM, first compound 0.949 µM): 7.41%
viability, T/C (second compound 3.16 µM, first compound 3 µM): 8.3%
viability, T/C (second compound 10 µM, first compound 0.00949 µM): 7.72%
viability, T/C (second compound 10 µM, first compound 0.03 µM): 6.58%
viability, T/C (second compound 10 µM, first compound 0.0949 µM): 7.6%
viability, T/C (second compound 10 µM, first compound 0.3 µM): 6.29%
viability, T/C (second compound 10 µM, first compound 0.949 µM): 30.5%
viability, T/C (second compound 10 µM, first compound 3 µM): 8.25%
viability, T/C (second compound 31.6 µM, first compound 0.00949 µM): 6.42%
viability, T/C (second compound 31.6 µM, first compound 0.03 µM): 7.02%
viability, T/C (second compound 31.6 µM, first compound 0.0949 µM): 7.1%
viability, T/C (second compound 31.6 µM, first compound 0.3 µM): 7.06%
viability, T/C (second compound 31.6 µM, first compound 0.949 µM): 7.26%
viability, T/C (second compound 31.6 µM, first compound 3 µM): 9.15%
viability, T/C (second compound 100 µM, first compound 0.00949 µM): 7.03%
viability, T/C (second compound 100 µM, first compound 0.03 µM): 6.67%
viability, T/C (second compound 100 µM, first compound 0.0949 µM): 6.67%
viability, T/C (second compound 100 µM, first compound 0.3 µM): 7.34%
viability, T/C (second compound 100 µM, first compound 0.949 µM): 7.7%
viability, T/C (second compound 100 µM, first compound 3 µM): 9.27%

O=C(c1cc(Cc2n[nH]c(=O)c3ccccc23)ccc1F)N1CCN(C(=O)C2CC2)CC1
viability, T/C (compound 0.0949 µM): 90.1% and 105% and 85.6%
viability, T/C (compound 0.3 µM): 61.4% and 93.6% and 95.1%
viability, T/C (compound 0.949 µM): 71.1% and 82% and 81.4%
viability, T/C (compound 3 µM): 51.2% and 34.2% and 52.1%
viability, T/C (compound 9.49 µM): 30.8% and 7.1% and 16.9%
IC50 (curve of compound): 3090 nM and 2030 nM and 3150 nM

COc1ccc([C@@H](O)c2cc(-c3ncnc4cc(N5CCOCC5)ccc34)c(F)cc2Cl)nn1
viability, T/C (compound 0.0316 µM): 103% and 90.6% and 75%
viability, T/C (compound 0.1 µM): 109% and 83.6% and 83.3%
viability, T/C (compound 0.316 µM): 79.3% and 76.5% and 84.2%
viability, T/C (compound 1 µM): 65.6% and 58.1% and 69%
viability, T/C (compound 3.16 µM): 47.3% and 57.3% and 87.8%
viability, T/C (compound 10 µM): 15.5% and 53.7% and 58.8%
IC50 (curve of compound): 2360 nM and > 10000 nM

COc1ccc([C@@H](O)c2cc(-c3ncnc4cc(N5CCOCC5)ccc34)c(F)cc2Cl)nn1 + Cn1nnc2c(C(N)=O)ncn2c1=O
IC50 [1]: 797 nM
IC50 [2]: 873 nM
IC50 [3]: 1100 nM
IC50 [4]: 810 nM
IC50 [5]: 506 nM
viability, T/C (second compound 1 µM, first compound 0.0316 µM): 80.1%
viability, T/C (second compound 1 µM, first compound 0.1 µM): 78.5%
viability, T/C (second compound 1 µM, first compound 0.316 µM): 76.6%
viability, T/C (second compound 1 µM, first compound 1 µM): 34.6%
viability, T/C (second compound 1 µM, first compound 3.16 µM): 46.3%
viability, T/C (second compound 1 µM, first compound 10 µM): 49.5%
viability, T/C (second compound 3.16 µM, first compound 0.0316 µM): 102%
viability, T/C (second compound 3.16 µM, first compound 0.1 µM): 83.7%
viability, T/C (second compound 3.16 µM, first compound 0.316 µM): 77.8%
viability, T/C (second compound 3.16 µM, first compound 1 µM): 40.8%
viability, T/C (second compound 3.16 µM, first compound 3.16 µM): 45.6%
viability, T/C (second compound 3.16 µM, first compound 10 µM): 52.4%
viability, T/C (second compound 10 µM, first compound 0.0316 µM): 99.2%
viability, T/C (second compound 10 µM, first compound 0.1 µM): 94.1%
viability, T/C (second compound 10 µM, first compound 0.316 µM): 65.6%
viability, T/C (second compound 10 µM, first compound 1 µM): 50.8%
viability, T/C (second compound 10 µM, first compound 3.16 µM): 48.9%
viability, T/C (second compound 10 µM, first compound 10 µM): 33.8%
viability, T/C (second compound 31.6 µM, first compound 0.0316 µM): 99.3%
viability, T/C (second compound 31.6 µM, first compound 0.1 µM): 101%
viability, T/C (second compound 31.6 µM, first compound 0.316 µM): 68.1%
viability, T/C (second compound 31.6 µM, first compound 1 µM): 46.7%
viability, T/C (second compound 31.6 µM, first compound 3.16 µM): 30.4%
viability, T/C (second compound 31.6 µM, first compound 10 µM): 20.8%
viability, T/C (second compound 100 µM, first compound 0.0316 µM): 89.9%
viability, T/C (second compound 100 µM, first compound 0.1 µM): 81%
viability, T/C (second compound 100 µM, first compound 0.316 µM): 55%
viability, T/C (second compound 100 µM, first compound 1 µM): 36.5%
viability, T/C (second compound 100 µM, first compound 3.16 µM): 34%
viability, T/C (second compound 100 µM, first compound 10 µM): 17.3%

Cc1sc2c(c1C)C(c1ccc(Cl)cc1)=NC(CC(=O)Nc1ccc(O)cc1)c1nnc(C)n1-2 (stereo not given)
viability, T/C (compound 0.00949 µM): 95.3% and 98.3% and 94.6%
viability, T/C (compound 0.03 µM): 95.8% and 95.1% and 102%
viability, T/C (compound 0.0949 µM): 47.7% and 63.8% and 60.6%
viability, T/C (compound 0.3 µM): 22.9% and 31% and 24.5%
viability, T/C (compound 0.949 µM): 4.99% and 4.88% and 4.46%
viability, T/C (compound 3 µM): 3.39% and 2.12% and 2.52%
IC50 (curve of compound): 104 nM and 156 nM and 140 nM
